In brackets after ≈: the same amount, converted by molar mass.

The subject of assay [1] is MCF-7 MDR Doxorubicin resistant cells. Put plainly: Epi-fluorescent microscopy of doxorubicin delivery and retention.
Assay [2] relates to SKOV-3 TR resistant Ovarian cancer cells. Briefly: cells. The format is cell-based. On the procedure:
Human ovarian cancer (SKOV-3 TR) resistant cells were cultured using the same protocol described for culturing SKOV-3 TR resistant cells in Example 8 above. Cultured cells (SKOV-3 TR) were incubated with bispecific anti-Her-2 Affibody-anti-DTPA antibody at a concentration of 20 μg/ml for 24 hours at 37° C. […] After 24-48 h incubation at 37° C., viability was assessed by Trypan Blue exclusion test using CellTiter Blue® (Promega, Madison, Wis.) following the manufacturer's protocol as described above in Example 8.
SKOV-3 sensitive and SKOV-3 TR resistant Ovarian cancer cells were cultured using the same protocol described in Examples 8 and 9 above. Cultured cells were incubated with bispecific anti-Her-2 Affibody-anti-DTPA antibody.

Assay [3] deals with SKOV-3 sensitive Ovarian cancer cells. The conditions noted are these: cells pretargeted with anti-HER2/neu affibody, FIG. 7.
Procedure: (§1) Human ovarian cancer (SKOV-3) sensitive cells were grown in six well plates. Aliquots of 5000 cells/well were seeded in the cell culture treated 96 well plates and were grown for 24 hours. Cultured cells (SKOV-3) were incubated with bispecific anti-Her-2 Affibody-anti-DTPA antibody at a concentration of 20 or 40 μg/ml for 24 hours at 37° C. […] After 24 h incubation at 37° C., viability was assessed by Trypan Blue exclusion test using CellTiter Blue® (Promega, Madison, Wis.) following the manufacturer's protocol. Briefly, media was removed from plates containing cells incubated with agent-polymer conjugates. The plates were washed 2× with 200 μl of complete medium and then incubated with 50 μl of 1:50 dilution of CellTiter Blue® reagent for 2 hours. Cell viability was then evaluated by measuring the fluorescence (excitation 530 nm, emission 590 nm) using a Synergy HT multi-21 detection microplate reader (Biotek, Winooski, Vt.). Cells treated with complete media alone were used as controls to calculate the 100% cell viability and the studies were carried out in triplicates in at least 3 different assays. […] The above studies were repeated for 48 h incubation time.
For assay [4] the test system is unchanged. Put plainly: cells. The conditions noted are these: Homo sapiens, SK-OV-3, read-out: IC50 value in SKOV-3 sensitive cells.
Procedure: as §1

For “DTPA-Doxorubicin-Poly Glutamic acid [D-Dox-PGA]”, in assay [1] (pretargeted with bispecific biotinylated-anti-DTPA antibody, 1 h, then Dox free media 4 h, FIG. 8C), the “Doxorubicin retention in cells” value is recorded as “more Dox is retained”.
Take “DTPA-Paclitaxel-Poly Glutamic acid [D-PTXL-PGA]”: in assay [2] (SKOV-3 TR cells), the “Amount needed to obtain 50% cell killing in SKOV-3 TR cells relative to free PTXL” value was 5 times less. In assay [2] (cells pretargeted with anti-HER2/neu affibody, FIG. 7), the “IC50 value in paclitaxel resistant ovarian cancer cells” value came out at 0.069 mg/L. In addition, the “Concentration needed to obtain 50% cell killing in SKOV-3 TR resistant relative to SKOV-3 sensitive cells” value in assay [2] (ratio resistant/sensitive) was 2 time more. The “IC50 value in paclitaxel sensitive ovarian cancer cells” value in assay [3] is 0.089 mg/L.
On to `CC(=O)O[C@H]1C(=O)[C@@]2(C)[C@H]([C@H](OC(=O)c3ccccc3)[C@]3(O)C[C@H](OC(=O)[C@H](O)[C@@H](NC(=O)c4ccccc4)c4ccccc4)C(C)=C1C3(C)C)[C@]1(OC(C)=O)CO[C@@H]1C[C@@H]2O` [free PTXL, Paclitaxel], for which the IC50 (commonly the concentration at which inhibition is half-maximal) in assay [2] (Homo sapiens, SKOV3TR, free drug, FIG. 7) was 0.936 mg/L (≈ 1.1 µM); in assay [4], 0.089 mg/L (≈ 0.104 µM). Further, the “IC50 in SKOV-3 TR resistant cells relative to SKOV-3 sensitive cells” value in assay [2] (ratio resistant/sensitive) is on record as “about 10 times higher”.
On to `COc1cccc2c1C(=O)c1c(O)c3c(c(O)c1C2=O)C[C@@](O)(C(=O)CO)C[C@@H]3O[C@H]1C[C@H](N)[C@H](O)[C@H](C)O1` [free Dox, doxorubicin], for which the “Doxorubicin fluorescence in cells” value in assay [1] (15 μg/ml, incubated 5 h, FIG. 8A) is “nuclear sequestration”. Besides, the “Doxorubicin uptake in cells” value in assay [1] (incubated 1 h, then Dox free medium 4 h, FIG. 8B) is on record as “less Dox uptake occurred”.

The record behind these values is US20160310613A1, “METHODS AND COMPOSITIONS FOR OVERCOMING DRUG-RESISTANCE IN CANCER BY TARGETED DELIVERY OF PRO-DRUG-NANO-POLYMERS” (priority 2015, published 2016).
